Source: ChEMBL document CHEMBL1201862, “PubChem BioAssay data set” (2004)
pIC50: −log10 of the molar value. Activity calls are given as the source filed them.

Experiments:
[1] = biological target: Potassium voltage-gated channel subfamily KQT member 2 (Rattus norvegicus, UniProt O88943); assay: blockers of KCNQ2 channel current – cell-based, automated electrophysiology, set II, rat KCNQ2, dose response (AID 588637); type: functional
[2] = viability loss of HMLE_sh_eGFP cells – cell-based, luminescence, counter-screen for HMLE_sh_ECad selective toxicity project, dose response (AID 463074); type: functional, Homo sapiens;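 further: HMLE human mammary epithelial cells expressing control shRNA against eGFP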
[3] = Luminescence Cell-Based Dose Retest to Confirm Inhibitors of Cancer Stem Cells. [Related pubchem assays (depositor defined):AID2717, AID2721]; type: functional; conditions: Homo sapiens
[4] = fluconazole-exposed Candida albicans growth modulators – fluorescence, retest, confirmation (AID 2467); type: functional, cell-based
[5] = biological target: T1, Delta-type opioid receptor (Homo sapiens, UniProt P41143); assay: HTS Image-Based Screen for Antagonists of the DOR Receptor. [Related pubchem assays (depositor defined):AID1777, AID1785, AID1786, AID2133]; type: functional
Mu-type opioid receptor = Mu-type opioid receptor (Homo sapiens, UniProt P35372); assay: HTS Image-Based Screen for Agonists of the MOR Receptor. [Related pubchem assays (depositor defined):AID1777, AID1785, AID1786, AID2133]; type: functional;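 further: imaging of beta-arrestin GFP recruitment into spots after receptor activation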
[6] = NIH-3T3 fibroblast cytotoxicity, dose response, cytotoxicity control, cell-based, fluorescence, Alamar Blue, secondary assay (AID 2327); type: functional;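 further: NIH-3T3 mouse fibroblasts cultured with fluconazole at 8 µg/mL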
HEK293 [7] = assay: EBV LMP1 TES2 canonical NF-kB signalling blockers – cell-based, HEK293, luciferase, cherry-pick, dose response (AID 588343); type: functional; conditions: Homo sapiens
[8] = biological target: T1, Delta-type opioid receptor; assay: HTS Image-Based Screen for Agonists of the DOR Receptor. [Related pubchem assays (depositor defined):AID1777, AID1786, AID2133]; type: functional
Beta-galactosidase = Beta-galactosidase (Escherichia coli, UniProt Q8VNN2); type: functional
[9] = biological target: T2, Serine/threonine-protein phosphatase (Candida dubliniensis (strain CD36 / CBS 7987 / NCPF 3949 / NRRLY-17841) (Yeast), UniProt B9W6M3); assay: blockers of CaCl2-induced CDRE-lacZ signaling – S. cerevisiae, luminescence, secondary, dose response (AID 2388); type: functional, cell-based;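 further: yeast reporter cells carrying a calcineurin-responsive lacZ construct stimulated with calcium chloride; luminescent beta-galactosidase reporter signal in whole cells rather than isolated phosphatase activity; potency for inhibition where a drop in reporter signal means calcineurin blockade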
T2 sequence (B9W6M3 whole entry): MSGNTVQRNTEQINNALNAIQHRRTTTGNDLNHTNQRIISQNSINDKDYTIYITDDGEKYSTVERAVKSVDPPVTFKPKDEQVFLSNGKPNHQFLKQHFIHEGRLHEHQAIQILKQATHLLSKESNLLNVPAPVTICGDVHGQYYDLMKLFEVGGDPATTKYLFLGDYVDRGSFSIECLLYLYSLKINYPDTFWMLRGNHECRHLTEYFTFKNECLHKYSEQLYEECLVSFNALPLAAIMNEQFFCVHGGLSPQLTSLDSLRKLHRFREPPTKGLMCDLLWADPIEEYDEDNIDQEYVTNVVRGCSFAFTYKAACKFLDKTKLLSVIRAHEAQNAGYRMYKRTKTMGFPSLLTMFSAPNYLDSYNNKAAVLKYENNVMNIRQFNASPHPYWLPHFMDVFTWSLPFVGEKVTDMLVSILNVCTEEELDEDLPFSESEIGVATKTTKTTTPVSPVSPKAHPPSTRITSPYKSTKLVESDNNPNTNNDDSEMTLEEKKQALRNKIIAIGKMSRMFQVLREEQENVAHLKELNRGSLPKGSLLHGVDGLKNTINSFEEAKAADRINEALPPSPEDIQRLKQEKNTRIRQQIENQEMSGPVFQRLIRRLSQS

[10] = biological target: T3, Kappa-type opioid receptor (Homo sapiens, UniProt P41145); type: functional
[11] = biological target: Heat shock protein HSP 90-alpha (Homo sapiens, UniProt P07900); type: functional, organism-based
Streptococcus = assay: GAS UMAA2166 growth inhibition – luminescence, BacTiterGlo, counter-screen for streptokinase expression inhibitor project, dose response (AID 1915); type: functional, organism-based;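 further: potency for reduction of bacterial viability or growth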
[12] = tested on: Streptococcus sp. 'group A'; assay: Streptococcus pyogenes SK(-)GAS viability under kanamycin – luminescence, BacTiterGlo, confirmation, counter-screen for streptokinase expression inhibitor project, dose response (AID 1900); type: functional, organism-based
[13] = biological target: ATP-dependent molecular chaperone HSP82 (Candida albicans (strain WO-1) (Yeast), UniProt C4YTQ8); assay: steroid-induced GRE reporter decrease in yeast – S. cerevisiae, luminescence, Hsp90 inhibitor project, dose response (AID 2400); type: functional, cell-based;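 further: beta-galactosidase luminescence from glucocorticoid response element reporter as proxy for Hsp90 function; inhibitor potency where signal loss means Hsp90 inhibition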
[14] = biological target: T3, Kappa-type opioid receptor; type: functional; remark: listed apart in the source
[15] = restored growth of temperature-sensitive Burl-1 yeast – whole organism, S. cerevisiae, Burl-1 ts mutant, luminescence, counter-screen for SUMOylation pathway inhibitor project, dose response (AID 463199); type: functional
Insulin-degrading enzyme [16] = biological target: T4, Insulin-degrading enzyme (Homo sapiens, UniProt P14735); assay: recombinant IDE activation, cell-free – biochemical, fluorescence polarization, counter-screen for IDE activator project, dose response (AID 588681)
T4 sequence (P14735 whole entry): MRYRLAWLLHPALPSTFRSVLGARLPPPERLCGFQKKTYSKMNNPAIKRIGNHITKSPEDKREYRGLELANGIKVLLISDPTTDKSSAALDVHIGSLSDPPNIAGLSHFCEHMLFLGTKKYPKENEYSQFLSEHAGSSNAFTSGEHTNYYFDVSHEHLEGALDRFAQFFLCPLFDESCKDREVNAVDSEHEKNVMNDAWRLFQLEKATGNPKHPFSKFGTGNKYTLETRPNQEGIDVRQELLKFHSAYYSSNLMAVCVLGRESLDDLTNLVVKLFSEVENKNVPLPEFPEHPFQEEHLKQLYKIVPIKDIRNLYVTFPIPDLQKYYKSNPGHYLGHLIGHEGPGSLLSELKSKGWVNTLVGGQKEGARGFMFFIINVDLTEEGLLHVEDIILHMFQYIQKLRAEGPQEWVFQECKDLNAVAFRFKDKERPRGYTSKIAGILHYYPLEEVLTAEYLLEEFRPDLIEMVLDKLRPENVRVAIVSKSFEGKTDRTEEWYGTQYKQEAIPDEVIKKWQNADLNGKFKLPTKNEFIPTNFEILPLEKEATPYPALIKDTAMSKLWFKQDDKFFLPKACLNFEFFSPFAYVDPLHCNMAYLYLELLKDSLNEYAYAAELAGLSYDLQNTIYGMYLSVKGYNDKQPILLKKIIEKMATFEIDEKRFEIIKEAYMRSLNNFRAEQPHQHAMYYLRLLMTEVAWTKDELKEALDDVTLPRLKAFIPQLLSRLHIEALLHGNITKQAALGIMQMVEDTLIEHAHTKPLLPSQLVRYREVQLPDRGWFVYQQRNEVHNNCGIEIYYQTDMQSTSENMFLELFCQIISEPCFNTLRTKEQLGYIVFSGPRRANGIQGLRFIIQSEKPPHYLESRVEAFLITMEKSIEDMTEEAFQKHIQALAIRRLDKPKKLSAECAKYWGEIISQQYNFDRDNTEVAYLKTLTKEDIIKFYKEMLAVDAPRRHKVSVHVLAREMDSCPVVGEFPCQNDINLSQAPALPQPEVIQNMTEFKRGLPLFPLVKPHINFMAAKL

ORF 73 = ORF 73 (Human herpesvirus 8, UniProt O40947); assay: KSHV LANA DNA-binding disruption – biochemical, fluorescence polarization, cherry-picked samples, dose response (AID 504725); design: species or system Human gammaherpesvirus 8;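 further: fluorescence polarization of a labeled DNA duplex reporting LANA DNA binding; potency is for inhibitors that block LANA binding to the DNA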
cells = conditions: A549
[17] = rescue of ΔF508 CFTR function, airway epithelium – human bronchial epithelial cells, plate reader, cherry-pick, two tests, dose response (AID 743267); type: functional, cell-based
Insulin-degrading enzyme [18] = biological target: T4, Insulin-degrading enzyme; assay: cellular IDE activation of Abeta substrate cleavage – fluorescence polarization, HEK cells, dose response (AID 588439); type: functional, cell-based
HEK293 [19] = assay: membrane integrity loss in HEK cells – cell-based, fluorescence, cytotoxicity control for IDE activator project, dose response (AID 588440); type: functional; conditions: Homo sapiens;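 further: cytotoxicity by LDH release measuring loss of membrane integrity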
Beta Lactamase = Beta Lactamase (Pseudomonas aeruginosa, UniProt Q932Y6);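 further: confirmatory high-throughput screen measuring VIM-2 metallo-beta-lactamase inhibition by epi-absorbance in dose response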
HEK293 [20] = assay: optical interference in Abeta FP readout, dose response, artefact control for IDE activator project, biochemical, fluorescence polarization (AID 588442); type: functional, cell-based; conditions: Homo sapiens
[21] = viability loss in HepG2 liver cells – cell-based, ATP luminescence, cherry-pick, set 6, cytotoxicity control, dose response (AID 1053125); type: functional
[22] = biological target: UDP-galactopyranose mutase (Mycobacterium tuberculosis, UniProt P9WIQ1); assay: Inhibitors of Mycobacterium tuberculosis UDP-galactopyranose mutase (UGM) enzyme Measured in Biochemical System Using Plate Reader - 2105-02_Inhibitor_Dose_CherryPick_Activity. [Related pubchem assays (depositor defined):AID504439]
[23] = biological target: T5, Mannose-6-phosphate isomerase (Homo sapiens, UniProt P34949); assay: phosphomannose isomerase inhibition – biochemical, fluorescence intensity, confirmation (AID 1535)
T5 sequence (P34949 whole entry): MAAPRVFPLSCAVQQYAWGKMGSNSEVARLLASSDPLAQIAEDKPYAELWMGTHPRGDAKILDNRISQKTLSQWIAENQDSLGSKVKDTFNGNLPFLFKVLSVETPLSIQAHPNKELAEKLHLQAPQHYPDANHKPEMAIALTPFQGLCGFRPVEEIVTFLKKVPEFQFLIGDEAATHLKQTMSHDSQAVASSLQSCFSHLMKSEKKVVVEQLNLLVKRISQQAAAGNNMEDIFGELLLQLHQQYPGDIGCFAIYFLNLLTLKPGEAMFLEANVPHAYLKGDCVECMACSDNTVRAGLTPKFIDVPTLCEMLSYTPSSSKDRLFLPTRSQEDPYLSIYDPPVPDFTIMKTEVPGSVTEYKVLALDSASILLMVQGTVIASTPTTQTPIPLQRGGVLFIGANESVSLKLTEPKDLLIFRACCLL

Phosphomannomutase 2 = Phosphomannomutase 2 (Homo sapiens, UniProt O15305); assay: Counter screen SAR assay for PMM2 inhibitors via a fluorescence intensity assay. [Related pubchem assays (depositor defined):AID1545, AID1574]
[24] = biological target: Nuclear receptor ROR-alpha (Homo sapiens, UniProt P35398); assay: LXR, FXR and VP16 reporter activity, cell-based, luciferase reporter, ROR modulator project, late-stage follow-up, panel member RORA (AID 2117)
[25] = biological target: Nuclear receptor ROR-gamma (Homo sapiens, UniProt P51449); assay: LXR, FXR and VP16 reporter activity, cell-based, luciferase reporter, ROR modulator project, late-stage follow-up, panel member RORG (AID 2117)
[26] = biological target: T6, Alkaline phosphatase, tissue-nonspecific isozyme (Homo sapiens, UniProt P05186); assay: TNAP enzyme inhibition by screening hits, dose response, selectivity assay for mouse IAP inhibitor project, biochemical, human TNAP, uHTS hits (AID 488906); type: functional
T6 sequence (P05186 whole entry): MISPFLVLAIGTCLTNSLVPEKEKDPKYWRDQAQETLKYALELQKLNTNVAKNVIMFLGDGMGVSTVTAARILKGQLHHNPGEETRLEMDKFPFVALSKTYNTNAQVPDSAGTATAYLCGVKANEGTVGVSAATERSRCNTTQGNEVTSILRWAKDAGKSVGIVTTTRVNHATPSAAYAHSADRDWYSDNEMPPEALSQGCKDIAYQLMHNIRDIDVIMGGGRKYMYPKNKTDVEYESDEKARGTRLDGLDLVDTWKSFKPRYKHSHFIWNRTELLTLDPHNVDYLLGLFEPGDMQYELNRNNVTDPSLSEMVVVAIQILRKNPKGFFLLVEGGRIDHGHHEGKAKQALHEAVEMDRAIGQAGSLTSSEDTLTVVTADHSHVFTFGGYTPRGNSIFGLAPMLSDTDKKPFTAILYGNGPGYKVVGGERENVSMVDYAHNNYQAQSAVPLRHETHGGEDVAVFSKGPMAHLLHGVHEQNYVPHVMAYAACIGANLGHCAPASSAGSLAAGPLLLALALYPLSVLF

[27] = biological target: Intestinal-type alkaline phosphatase (Homo sapiens, UniProt P09923); assay: inhibition of human intestinal alkaline phosphatase – biochemical, dose response (AID 488876); type: functional
[28] = biological target: Intestinal-type alkaline phosphatase (Mus musculus, UniProt P24822); assay: PubChem AID 488785; type: functional

T3 sequence (P41145 whole entry): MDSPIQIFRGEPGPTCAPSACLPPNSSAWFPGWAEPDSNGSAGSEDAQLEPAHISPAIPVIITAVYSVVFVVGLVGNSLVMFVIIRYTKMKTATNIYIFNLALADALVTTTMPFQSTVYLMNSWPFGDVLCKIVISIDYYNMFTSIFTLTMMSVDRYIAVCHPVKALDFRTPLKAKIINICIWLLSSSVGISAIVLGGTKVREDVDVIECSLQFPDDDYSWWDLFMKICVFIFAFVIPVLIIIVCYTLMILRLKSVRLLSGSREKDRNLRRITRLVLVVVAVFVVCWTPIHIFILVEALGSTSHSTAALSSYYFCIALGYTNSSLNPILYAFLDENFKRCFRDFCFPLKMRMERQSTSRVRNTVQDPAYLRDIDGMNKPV
T1 sequence (P41143 whole entry): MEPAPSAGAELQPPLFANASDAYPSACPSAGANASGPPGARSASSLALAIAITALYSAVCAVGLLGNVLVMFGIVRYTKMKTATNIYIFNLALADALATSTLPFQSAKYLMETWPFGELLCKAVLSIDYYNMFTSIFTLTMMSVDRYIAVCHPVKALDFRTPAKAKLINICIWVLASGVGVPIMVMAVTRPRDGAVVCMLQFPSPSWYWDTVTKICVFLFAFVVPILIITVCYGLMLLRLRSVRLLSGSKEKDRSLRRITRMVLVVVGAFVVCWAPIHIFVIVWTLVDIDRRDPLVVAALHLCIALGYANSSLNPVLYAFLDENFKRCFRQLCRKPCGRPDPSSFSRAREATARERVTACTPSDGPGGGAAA
Sequence of Beta-galactosidase (Q8VNN2 whole entry): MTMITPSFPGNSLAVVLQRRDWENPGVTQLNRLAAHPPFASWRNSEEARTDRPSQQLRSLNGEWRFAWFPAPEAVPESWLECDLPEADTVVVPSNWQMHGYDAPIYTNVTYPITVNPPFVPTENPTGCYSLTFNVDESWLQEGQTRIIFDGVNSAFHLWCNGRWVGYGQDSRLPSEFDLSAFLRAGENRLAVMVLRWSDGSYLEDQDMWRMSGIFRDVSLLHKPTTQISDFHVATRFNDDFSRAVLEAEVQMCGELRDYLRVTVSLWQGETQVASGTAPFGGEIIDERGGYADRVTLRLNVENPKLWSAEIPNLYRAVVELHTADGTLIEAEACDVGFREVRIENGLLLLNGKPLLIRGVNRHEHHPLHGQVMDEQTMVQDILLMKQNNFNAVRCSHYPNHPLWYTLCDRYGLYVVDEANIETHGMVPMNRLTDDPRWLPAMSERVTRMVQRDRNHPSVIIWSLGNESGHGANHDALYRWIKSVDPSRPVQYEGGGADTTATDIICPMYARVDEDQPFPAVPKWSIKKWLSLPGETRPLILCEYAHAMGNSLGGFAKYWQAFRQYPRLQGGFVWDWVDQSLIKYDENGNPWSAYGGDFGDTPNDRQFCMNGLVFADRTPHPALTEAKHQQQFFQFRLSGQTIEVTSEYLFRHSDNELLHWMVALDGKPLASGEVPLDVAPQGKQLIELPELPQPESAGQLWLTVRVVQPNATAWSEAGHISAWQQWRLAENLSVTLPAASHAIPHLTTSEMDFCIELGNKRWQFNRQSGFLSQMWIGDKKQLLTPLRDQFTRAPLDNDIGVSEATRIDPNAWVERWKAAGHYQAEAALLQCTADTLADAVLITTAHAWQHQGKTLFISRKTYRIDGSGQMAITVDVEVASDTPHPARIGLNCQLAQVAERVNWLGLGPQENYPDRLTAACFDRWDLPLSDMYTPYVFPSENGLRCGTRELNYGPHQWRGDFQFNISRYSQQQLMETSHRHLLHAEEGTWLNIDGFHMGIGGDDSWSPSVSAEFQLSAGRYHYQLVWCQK
Sequence of Intestinal-type alkaline phosphatase (Homo sapiens, UniProt P09923) (P09923 whole entry): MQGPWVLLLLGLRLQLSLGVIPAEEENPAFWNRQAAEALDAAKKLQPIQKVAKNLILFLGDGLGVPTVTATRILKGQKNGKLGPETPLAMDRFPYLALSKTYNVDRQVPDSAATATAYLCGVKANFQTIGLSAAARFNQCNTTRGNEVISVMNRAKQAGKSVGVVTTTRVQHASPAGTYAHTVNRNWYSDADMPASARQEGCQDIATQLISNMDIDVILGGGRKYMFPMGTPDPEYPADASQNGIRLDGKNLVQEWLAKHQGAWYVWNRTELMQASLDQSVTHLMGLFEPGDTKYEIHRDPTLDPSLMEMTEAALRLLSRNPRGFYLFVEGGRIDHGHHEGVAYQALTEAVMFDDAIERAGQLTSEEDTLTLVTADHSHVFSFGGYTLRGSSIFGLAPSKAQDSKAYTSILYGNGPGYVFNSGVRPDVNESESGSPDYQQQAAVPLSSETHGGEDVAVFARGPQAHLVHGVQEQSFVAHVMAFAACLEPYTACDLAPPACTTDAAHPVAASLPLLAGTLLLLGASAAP
Sequence of ORF 73 (O40947 whole entry): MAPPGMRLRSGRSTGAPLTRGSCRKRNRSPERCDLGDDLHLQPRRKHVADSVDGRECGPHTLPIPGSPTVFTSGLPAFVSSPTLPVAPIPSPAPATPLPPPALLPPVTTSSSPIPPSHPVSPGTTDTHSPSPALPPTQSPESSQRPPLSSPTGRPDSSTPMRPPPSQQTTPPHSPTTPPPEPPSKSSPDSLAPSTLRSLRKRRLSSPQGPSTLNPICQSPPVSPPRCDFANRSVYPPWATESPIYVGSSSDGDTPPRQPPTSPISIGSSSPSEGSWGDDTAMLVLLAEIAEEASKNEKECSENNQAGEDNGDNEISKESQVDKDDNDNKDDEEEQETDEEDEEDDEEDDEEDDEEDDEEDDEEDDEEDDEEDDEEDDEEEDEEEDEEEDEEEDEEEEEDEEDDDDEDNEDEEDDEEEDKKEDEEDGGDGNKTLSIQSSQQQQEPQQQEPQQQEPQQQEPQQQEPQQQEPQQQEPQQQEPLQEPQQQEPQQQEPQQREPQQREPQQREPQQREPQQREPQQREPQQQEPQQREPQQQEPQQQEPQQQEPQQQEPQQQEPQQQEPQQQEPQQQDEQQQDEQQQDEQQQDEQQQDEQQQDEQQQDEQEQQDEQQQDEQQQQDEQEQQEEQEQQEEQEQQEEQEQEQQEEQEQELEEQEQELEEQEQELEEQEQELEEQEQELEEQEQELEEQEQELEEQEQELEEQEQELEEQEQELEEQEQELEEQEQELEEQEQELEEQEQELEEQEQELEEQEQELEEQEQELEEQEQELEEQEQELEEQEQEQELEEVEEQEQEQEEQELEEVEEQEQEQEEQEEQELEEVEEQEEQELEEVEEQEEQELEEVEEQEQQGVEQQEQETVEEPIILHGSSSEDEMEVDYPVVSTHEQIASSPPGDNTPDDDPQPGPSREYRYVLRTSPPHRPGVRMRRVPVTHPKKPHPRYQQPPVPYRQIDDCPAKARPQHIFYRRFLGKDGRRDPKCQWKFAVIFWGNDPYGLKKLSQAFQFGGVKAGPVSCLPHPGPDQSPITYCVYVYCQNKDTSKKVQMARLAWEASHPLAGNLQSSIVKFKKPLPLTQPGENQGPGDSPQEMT
Sequence of ATP-dependent molecular chaperone HSP82 (C4YTQ8 whole entry): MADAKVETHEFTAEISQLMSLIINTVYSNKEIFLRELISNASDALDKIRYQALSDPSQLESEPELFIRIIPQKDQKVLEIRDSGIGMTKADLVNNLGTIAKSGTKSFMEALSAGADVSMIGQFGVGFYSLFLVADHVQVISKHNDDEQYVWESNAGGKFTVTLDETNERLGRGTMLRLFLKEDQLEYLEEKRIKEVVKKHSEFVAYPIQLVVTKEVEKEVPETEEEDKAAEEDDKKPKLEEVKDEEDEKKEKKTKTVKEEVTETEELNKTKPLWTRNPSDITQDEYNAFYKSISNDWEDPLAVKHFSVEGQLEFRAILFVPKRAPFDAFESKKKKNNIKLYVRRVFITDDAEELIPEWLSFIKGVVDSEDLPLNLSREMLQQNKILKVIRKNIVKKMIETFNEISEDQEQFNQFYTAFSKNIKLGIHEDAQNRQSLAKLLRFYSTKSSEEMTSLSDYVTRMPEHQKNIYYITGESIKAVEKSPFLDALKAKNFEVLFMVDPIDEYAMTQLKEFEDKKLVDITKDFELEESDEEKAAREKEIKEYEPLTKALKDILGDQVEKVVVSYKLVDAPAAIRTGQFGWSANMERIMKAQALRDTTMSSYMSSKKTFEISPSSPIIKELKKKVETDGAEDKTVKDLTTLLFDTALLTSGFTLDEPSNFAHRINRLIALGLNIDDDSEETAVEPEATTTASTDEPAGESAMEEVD
Sequence of Mu-type opioid receptor (P35372 whole entry): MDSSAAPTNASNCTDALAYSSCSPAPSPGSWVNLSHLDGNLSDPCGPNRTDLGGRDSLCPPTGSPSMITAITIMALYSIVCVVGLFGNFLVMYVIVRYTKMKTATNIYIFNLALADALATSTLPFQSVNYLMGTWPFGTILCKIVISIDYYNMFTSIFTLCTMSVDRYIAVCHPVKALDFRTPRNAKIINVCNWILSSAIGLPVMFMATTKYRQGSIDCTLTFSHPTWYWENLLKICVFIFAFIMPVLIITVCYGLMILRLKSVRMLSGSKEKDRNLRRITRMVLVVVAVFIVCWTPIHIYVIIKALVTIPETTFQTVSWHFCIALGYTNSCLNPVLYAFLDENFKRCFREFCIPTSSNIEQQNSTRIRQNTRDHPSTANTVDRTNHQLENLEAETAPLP
Sequence of Nuclear receptor ROR-gamma (P51449 whole entry): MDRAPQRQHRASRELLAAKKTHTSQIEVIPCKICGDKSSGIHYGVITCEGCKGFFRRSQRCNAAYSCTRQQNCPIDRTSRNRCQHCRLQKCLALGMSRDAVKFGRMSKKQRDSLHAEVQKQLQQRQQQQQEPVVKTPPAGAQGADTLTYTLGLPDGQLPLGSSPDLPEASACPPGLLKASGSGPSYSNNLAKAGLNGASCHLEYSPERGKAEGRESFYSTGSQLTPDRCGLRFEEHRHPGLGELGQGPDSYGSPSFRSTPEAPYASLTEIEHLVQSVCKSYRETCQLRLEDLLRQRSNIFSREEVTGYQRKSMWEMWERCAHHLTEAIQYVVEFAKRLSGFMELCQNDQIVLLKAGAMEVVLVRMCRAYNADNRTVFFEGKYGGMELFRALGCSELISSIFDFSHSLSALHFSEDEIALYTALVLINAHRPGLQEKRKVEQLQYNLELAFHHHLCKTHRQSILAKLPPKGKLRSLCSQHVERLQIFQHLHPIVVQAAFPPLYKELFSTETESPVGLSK

For `COc1cccc(C(=O)NC(=S)Nc2ccccc2N2CCOCC2)c1`, the IC50 [1] was 6.01 µM (active), the AC50 [2] was 33.5 µM (active) and the AC50 [3] was 20.1 µM (active).

With `O=C(Nc1nnc(SCc2ccc(F)cc2)s1)c1ccccn1` the EC50 [4] was 1.42 µM (active), the IC50 [5] was > 32 µM (inactive) and the EC50 (Mu-type opioid receptor) was > 32 µM (inactive). The EC50 [6] was 74.7 µM (active), the AC50 (HEK293 [7]) was 1.97 µM (active) and the EC50 [8] was > 32 µM (inactive). For the same compound, the EC50 (Beta-galactosidase) was > 31.5 µM (inactive), the EC50 [9] was > 180 µM (inactive) and the pIC50 [10] was under 4.49. The AC50 [11] was 3.56 µM (active), the EC50 (Streptococcus) was 2.54 µM (active) and the EC50 [12] was 663 nM (active). The EC50 [13] was 4.97 µM (active) and the IC50 [14] was 4.45 µM (active).

In the case of `O=C(CSc1nnc(NC(=O)CN2CCOCC2)s1)Nc1ccccc1`, the AC50 [15] was 47.5 µM (active).

With `Nc1ccc2ccc3cccc[n+]3c2c1.[O-][Cl+3]([O-])([O-])[O-]` the EC50 (Insulin-degrading enzyme [16]) was > 54.7 µM (inactive), the AC50 (ORF 73) was 1.3 µM (active) and the AC50 (cells) was 27.3 µM (active). The AC50 [17] was 21.4 µM (active), the EC50 (Insulin-degrading enzyme [18]) was > 54.7 µM (inactive) and the IC50 (HEK293 [19]) was > 89.2 µM (inactive). For the same compound, the IC50 (Beta Lactamase) was 9.33 µM (active), the EC50 (HEK293 [20]) was 6.89 µM (active) and the AC50 [21] was > 52 µM (inactive). For the same compound, the AC50 [22] was 3.88 µM (active).

In the case of `Nc1ccccc1/N=c1\ssnc1Cl`, the IC50 [23] was 9.43 µM (active) and the IC50 (Phosphomannomutase 2) was > 100 µM (inactive).

For `COc1cccc(S(=O)(=O)Nc2ccc(C(O)(C(F)(F)F)C(F)(F)F)cc2)c1`, the IC50 [24] was 2.31 µM (active) and the IC50 [25] was 7.23 µM (active).

In the case of `COC(=O)C/C=N/NC1=NC(=O)/C(=C/C(=O)O)S1`, the IC50 [26] was > 100 µM (inactive), the IC50 [27] was 1.74 µM (active) and the IC50 [28] was 3.68 µM (active).
